Data on 1 compound can be found in US7273896B2, “Compositions and methods of using a transient colorant” (Angiotech Pharmaceuticals (US), Inc., priority 2003, dated 2007).

Molecules are shown by their SMILES.

This series in a line: Solubility of fluorescein in COH102 and COH206 buffer. In kind it is physicochemical. To be noted: 0.1% in COH102 and COH206 buffer. The method, then: General Procedures. Transient colorants were subjected to irradiation or other sterilization methods to determine if they would be stable. Standard chemical mixing, measuring, and analytical methods were utilized. Solubilities for effective amounts of transient colorants mixed in starting materials (and in the final compositions) were verified by routine mixing followed by analytical procedures.
Fluorescein was tested at 0.1% in COH102 and COH206 buffer and found to be soluble. To test in COSEAL®, one-fifth volume of COH102 buffer was replaced with 0.1% to 1.0% fluorescein in COH102 buffer, and the PEGs, COH102, and COH206 were added and dissolved. The fluorescence was noted to go away upon dissolving the mixed PEGs, and the color changed to a light yellow. However, when the solution was sprayed with COH206 buffer to make the reaction product COSEAL®, the fluorescence returned. The final fluorescein concentration was 0.01% to 0.1% by weight of the final composition.

Regarding `O=C1OC2(c3ccc(O)cc3Oc3cc(O)ccc32)c2ccccc21` [Fluorescein, fluorescein], the solubility result is listed as “soluble”.
